# From ChEMBL document CHEMBL3774388, “Synthesis and anti-cancer activity evaluation of 5-(2-carboxyethenyl)-isatin derivatives” (Eur J Med Chem, 2016)
# The source made the active and inactive calls. The calls are words filed in the database; no cut-off is given here.
# Experiments:
# [1] = tested on: Jurkat; assay: Anticancer activity against human Jurkat cells after 48 hrs by MTT assay; format: functional, cell-based
# [2] = tested on: Jurkat; assay: Induction of apoptosis in human Jurkat cells assessed as necrotic cells at 30 nM after 12 hrs by Annexin-V-FITC/PI-staining based flow cytometric analysis (reference value: 0.8%); format: functional
# [3] = tested on: Jurkat; assay: Induction of apoptosis in human Jurkat cells assessed as late apoptotic cells at 30 nM after 12 hrs by Annexin-V-FITC/PI-staining based flow cytometric analysis relative to control; format: functional
# [4] = tested on: Jurkat; assay: Induction of apoptosis in human Jurkat cells assessed as early apoptotic cells at 30 nM after 12 hrs by Annexin-V-FITC/PI-staining based flow cytometric analysis relative to control; format: functional
# [5] = tested on: Jurkat; assay: Induction of apoptosis in human Jurkat cells assessed as viable cells at 30 nM after 12 hrs by Annexin-V-FITC/PI-staining based flow cytometric analysis (reference value: 99.1%); format: functional; conditions: read-out: Activity
# [6] = tested on: Jurkat; assay: Induction of apoptosis in human Jurkat cells assessed as necrotic cells at 10 nM after 12 hrs by Annexin-V-FITC/PI-staining based flow cytometric analysis (reference value: 0.8%); format: functional
# [7] = tested on: Jurkat; assay: Induction of apoptosis in human Jurkat cells assessed as late apoptotic cells at 10 nM after 12 hrs by Annexin-V-FITC/PI-staining based flow cytometric analysis relative to control; format: functional
# [8] = tested on: Jurkat; assay: Induction of apoptosis in human Jurkat cells assessed as early apoptotic cells at 10 nM after 12 hrs by Annexin-V-FITC/PI-staining based flow cytometric analysis relative to control; format: functional
# [9] = tested on: Jurkat; assay: Induction of apoptosis in human Jurkat cells assessed as viable cells at 10 nM after 12 hrs by Annexin-V-FITC/PI-staining based flow cytometric analysis (reference value: 99.1%); format: functional; conditions: read-out: Activity
# [10] = tested on: Jurkat; assay: Induction of apoptosis in human Jurkat cells assessed as increase in cells with reduction in mitochondrial membrane potential at 30 nM after 48 hrs by TMRM-staining based flow cytometric analysis ( Rvb = 7.8%); format: functional; set-up: scale not given: the % may be the effect or the level left
# [11] = tested on: Jurkat; assay: Induction of apoptosis in human Jurkat cells assessed as increase in cells with reduction in mitochondrial membrane potential at 30 nM after 24 hrs by TMRM-staining based flow cytometric analysis ( Rvb = 7.8%); format: functional; set-up: scale not given: the % may be the effect or the level left
# [12] = tested on: Jurkat; assay: Induction of apoptosis in human Jurkat cells using Z-DEVD-R110 as substrate assessed as caspase3 activation at 30 nM incubated for 18 hrs measured at 48 hrs by fluorescence analysis; format: functional, cell-based
# [13] = Anticancer activity against human SKOV3 cells after 48 hrs by MTT assay; format: functional, cell-based; conditions: SK-OV-3, 48 h
# [14] = Anticancer activity against human DU145 cells after 48 hrs by MTT assay; format: functional, cell-based; conditions: DU-145, 48 h
# [15] = tested on: A549; assay: Anticancer activity against human A549 cells after 48 hrs by MTT assay; format: functional, cell-based; conditions: A549, 48 h
# [16] = Anticancer activity against human BT549 cells after 48 hrs by MTT assay; format: functional, cell-based; conditions: BT-549, 48 h
# [17] = Anticancer activity against human BT474 cells after 48 hrs by MTT assay; format: functional, cell-based; conditions: BT-474, 48 h
# [18] = tested on: MCF7; assay: Anticancer activity against human MCF7 cells after 48 hrs by MTT assay; format: functional, cell-based; conditions: MCF7, 48 h
# [19] = Anticancer activity against human HCT116 cells after 48 hrs by MTT assay; format: functional, cell-based; conditions: HCT-116, 48 h
# [20] = tested on: HeLa; assay: Anticancer activity against human HeLa cells after 48 hrs by MTT assay; format: functional, cell-based
# [21] = tested on: A498; assay: Anticancer activity against human A498 cells after 48 hrs by MTT assay; format: functional, cell-based; conditions: A498, 48 h
# [22] = tested on: NCI-H1299; assay: Anticancer activity against human NCI-H1299 cells after 48 hrs by MTT assay; format: functional, cell-based; conditions: NCI-H1299, 48 h
# [23] = tested on: HUVEC; assay: Cytotoxicity against HUVEC cells after 48 hrs by MTT assay; format: cell-based; conditions: Homo sapiens
# [24] = tested on: HEK293; assay: Cytotoxicity against HEK293 cells after 48 hrs by MTT assay; format: cell-based; conditions: Homo sapiens, HEK293, 48 h
# [25] = tested on: Jurkat; assay: Induction of apoptosis in human Jurkat cells at 10 to 30 nM by Annexin-V-FITC/PI-staining based flow cytometric analysis; format: functional, cell-based; conditions: TDE = time-dependent effect
# [26] = tested on: Jurkat; assay: Induction of apoptosis in human Jurkat cells assessed as induction of cell shrinkage and blebbing at 10 and 30 nM incubated for 12 hrs by phase contrast microscopy; format: functional, cell-based
smiles,measurement,setting,value
CCCCOC(=O)/C=C/c1ccc2c(c1)C(=O)C(=O)N2Cc1ccc(Br)cc1,IC50,[1],700 nM
CCOC(=O)/C=C/c1ccc2c(c1)C(=O)C(=O)N2Cc1ccc(OC)cc1,IC50,[1],30 nM
COC(=O)/C=C/c1ccc2c(c1)C(=O)C(=O)N2Cc1ccc2ccccc2c1,IC50,[1],640 nM
COC(=O)/C=C/c1cccc2c1N(Cc1ccc(OC)cc1)C(=O)C2=O,IC50,[1],> 10000 nM
COC(=O)/C=C/c1ccc2c(c1)C(=O)C(=O)N2Cc1ccc(C#N)cc1,IC50,[1],80 nM
COC(=O)/C=C/c1ccc2c(c1)C(=O)C(=O)N2Cc1cccc(Br)c1,IC50,[1],120 nM
COc1ccc(CN2C(=O)C(=O)c3cc(/C=C/C(=O)N4CCCC4)ccc32)cc1,IC50,[1],2240 nM
COC(=O)/C=C/c1ccc2c(c1)C(=O)C(=O)N2Cc1ccccc1Br,IC50,[1],800 nM
COC(=O)/C=C/c1ccc2c(c1)C1(OCCO1)C(=O)N2Cc1ccc(Br)cc1,IC50,[1],> 10000 nM
COc1ccc(CN2C(=O)C(=O)c3cc(/C=C/C(=O)OCCO)ccc32)cc1,IC50,[1],500 nM
COC(=O)/C=C/c1ccc2c(c1)C(O)C(=O)N2Cc1ccc(Br)cc1 (stereo unspecified),IC50,[1],1230 nM
CCN1C(=O)C(=O)c2cc(/C=C/C(=O)OC)ccc21,IC50,[1],200 nM
O=C(/C=C/c1ccc2c(c1)C(=O)C(=O)N2Cc1ccc(Br)cc1)OCCO,IC50,[1],400 nM
CCCCc1ccc2c(c1)C(=O)C(=O)N2,IC50,[1],> 10000 nM
COC(=O)/C=C/c1ccc2c(c1)C(=O)C(=O)N2Cc1ccc(Br)cc1,IC50,[1],60 nM
COc1ccc2c(c1)C(=O)C(=O)N2 [5-METHOXYISATIN],IC50,[1],> 10000 nM
O=C1C(=O)N(Cc2ccc(Br)cc2)c2ccc(/C=C/C(=O)N3CCCC3)cc21,IC50,[1],3190 nM
COc1ccc(CN2C(=O)C(=O)c3cc(/C=C/C(=O)O)ccc32)cc1,IC50,[1],> 10000 nM
O=C1Nc2ccc(Cl)cc2C1=O,IC50,[1],> 10000 nM
COc1ccc(CN2C(=O)C(=O)c3cc(/C=C/C(=O)OC(C)(C)C)ccc32)cc1,IC50,[1],310 nM
COC(=O)/C=C/c1ccc2c(c1)CC(=O)N2Cc1ccc(OC)cc1,IC50,[1],> 10000 nM
O=C1Nc2ccc(F)cc2C1=O [5-FLUOROISATIN],IC50,[1],> 10000 nM
COC(=O)/C=C/c1ccc2c(c1)C(=O)C(=O)N2Cc1ccc(OC)cc1,IC50,[1],30 nM
same,Activity,[2],1.9%
same,Activity,[3],6.5%
same,Activity,[4],35.5%
same,viability at 0.03 µM,[5],56.1%
same,Activity,[6],1.8%
same,Activity,[7],7.2%
same,Activity,[8],28.5%
same,viability at 0.01 µM,[9],62.5%
same,Activity,[10],81.9%
same,Activity,[11],32%
same,Activity,[12],Active
same,IC50,[13],> 10 µM
same,IC50,[14],> 10 µM
same,IC50,[15],> 10 µM
same,IC50,[16],70 nM
same,IC50,[17],5.94 µM
same,IC50,[18],80 nM
same,IC50,[19],40 nM
same,IC50,[20],9.12 µM
same,IC50,[21],5.3 µM
same,IC50,[22],30 nM
same,IC50,[23],> 10 µM
same,IC50,[24],> 10 µM
same,Activity,[25],tde
same,Activity,[26],Active
COC(=O)/C=C/c1ccc2c(c1)C(=O)C(=O)N2,IC50,[1],200 nM
COc1ccc(CN2C(=O)C(=O)c3cc(/C=C/C(N)=O)ccc32)cc1,IC50,[1],1610 nM
COC(=O)/C=C/c1ccc2c(c1)C(=O)C(=O)N2Cc1ccc(Cl)c(Cl)c1,IC50,[1],850 nM
COC(=O)/C=C/c1ccc2c(c1)C(=O)C(=O)N2Cc1cc(C)cc(C)c1,IC50,[1],620 nM
COC(=O)/C=C/c1ccc2c(c1)C(=O)C(=O)N2Cc1ccc(F)cc1,IC50,[1],380 nM
CC(C)(C)OC(=O)/C=C/c1ccc2c(c1)C(=O)C(=O)N2Cc1ccc(Br)cc1,IC50,[1],1040 nM
O=C1Nc2ccccc2C1=O [ISATIN],IC50,[1],> 10000 nM
COC(=O)/C=C/c1ccc2c(c1)C(=O)C(=O)N2Cc1ccc(Cl)cc1,IC50,[1],260 nM
CCOC(=O)/C=C/c1ccc2c(c1)C(=O)C(=O)N2Cc1ccc(Br)cc1,IC50,[1],70 nM
Cc1ccc2c(c1)C(=O)C(=O)N2,IC50,[1],> 10000 nM
COC(=O)/C=C/c1ccc2c(c1)CC(=O)N2Cc1ccc(Br)cc1,IC50,[1],> 10000 nM
O=C1C(=O)N(Cc2ccc(Br)cc2)c2ccc(/C=C/C(=O)N3CCOCC3)cc21,IC50,[1],1430 nM
COC(=O)/C=C/c1ccc2c(c1)C(=O)C(=O)N2Cc1ccc(C(F)(F)F)cc1,IC50,[1],360 nM
COC(=O)/C=C/c1ccc2c(c1)C(=O)C(=O)N2CCOc1ccccc1,IC50,[1],200 nM
NC(=O)/C=C/c1ccc2c(c1)C(=O)C(=O)N2Cc1ccc(Br)cc1,IC50,[1],2340 nM
COC(=O)/C=C/c1ccc2c(c1)/C(=N/O)C(=O)N2Cc1ccc(Br)cc1,IC50,[1],5860 nM
COC(=O)/C=C/c1ccc2c(c1)C(O)C(=O)N2Cc1ccc(OC)cc1 (stereo unspecified),IC50,[1],30 nM
O=C1Nc2ccc(Br)cc2C1=O,IC50,[1],> 10000 nM
COC(=O)/C=C/c1ccc2c(c1)C(=O)C(=O)N2Cc1ccccc1,IC50,[1],70 nM
COc1ccc(CN2C(=O)C(=O)c3cc(/C=C/C(=O)N4CCOCC4)ccc32)cc1,IC50,[1],4550 nM
CC[C@@]1(O)C(=O)OCc2c1cc1n(c2=O)Cc2cc3ccccc3nc2-1 [CAMPTOTHECIN],IC50,[1],85 nM
COC(=O)/C=C/c1ccc2c(c1)C1(OCCO1)C(=O)N2Cc1ccc(OC)cc1,IC50,[1],> 10000 nM
COC(=O)/C=C/c1ccc2c(c1)C(=O)C(=O)N2C,IC50,[1],250 nM
COC(=O)/C=C/c1ccc2c(c1)C(=O)C(=O)N2Cc1ccc(C)cc1,IC50,[1],50 nM
CCCCOC(=O)/C=C/c1ccc2c(c1)C(=O)C(=O)N2Cc1ccc(OC)cc1,IC50,[1],220 nM
COC(=O)/C=C/c1ccc2c(c1)N(Cc1ccc(OC)cc1)C(=O)C2=O,IC50,[1],3110 nM
COC(=O)/C=C/c1ccc2c(c1)/C(=N/O)C(=O)N2Cc1ccc(OC)cc1,IC50,[1],9110 nM
COC(=O)/C=C/c1cccc2c1C(=O)C(=O)N2Cc1ccc(OC)cc1,IC50,[1],790 nM
